According to patent publication US20090012046A1, “Methods of Treating Mutated Hiv” (priority 2006, published 2009):
Several values for one entry are separate records, joined by “and”; a condition that tells them apart may be missing. Equal entries are not always repeated. Structures can show the parent of a compound that is named as a salt.

Tests used:
Format in all cases: cell-based
clinical HIV-1 isolates = experiment: Susceptibility of recombinant clinical HIV-1 isolates to RT inhibitors (fold change in EC50)
Method: The susceptibility of over 6000 recent clinical HIV-1 isolates for NcRTI-1 and different N(t)RTIs and NNRTIs was assessed.
Recombinant HIV-1 viruses, derived from clinical samples, were constructed by cotransfection of MT4 cells with sample derived viral protease and RT coding sequences and an HIV-1 HXB2-derived proviral clone deleted in the protease and RT coding region^2.

[1] = test system: HIV-1 strain with RT mutation K065R; experiment: Susceptibility of site-directed mutant strain; details: SDM strain K065R
Excerpt: (§1) Site-directed mutant RT coding sequences were generated from a pGEM vector containing the HIV-1 clone HXB2 protease and RT coding sequence by using a QuikChange™ site-directed mutagenesis kit, and HPLC-purified primers. Plasmids were sequenced to confirm that they contained the desired mutations. Mutant viruses were created by recombination of the mutant protease-RT sequence with a protease-RT deleted HIV-1 HXB2 proviral clone^2.

[2] = test system: HIV-1 strain with RT mutation K103N; experiment: Susceptibility of site-directed mutant strain; details: SDM strain K103N
Excerpt: as §1

[3] = test system: HIV-1 strain with RT mutation M184V; experiment: Susceptibility of site-directed mutant strain; details: SDM strain M184V
Excerpt: as §1

[4] = test system: HIV-1 strain with RT mutation Y115F; experiment: Susceptibility of site-directed mutant strain; details: SDM strain Y115F
Excerpt: as §1

[5] = test system: HIV-1 strain with RT mutation Y181C; experiment: Susceptibility of site-directed mutant strain; details: SDM strain Y181C
Excerpt: as §1

[6] = test system: HIV-1 strain with RT mutation Y188L; experiment: Susceptibility of site-directed mutant strain; details: SDM strain Y188L
Excerpt: as §1

[7] = test system: HIV-1 strain with RT mutations A62V V75I F77L F116Y Q151M; experiment: Susceptibility of site-directed mutant strain; details: SDM strain A62V V75I F77L F116Y Q151M
Excerpt: as §1

[8] = test system: HIV-1 strain with RT mutations F227C L234I; experiment: Susceptibility of site-directed mutant strain; details: SDM strain F227C L234I
Excerpt: as §1

[9] = test system: HIV-1 strain with RT mutations K065R M184V; experiment: Susceptibility of site-directed mutant strain; details: SDM strain K065R M184V
Excerpt: as §1

[10] = test system: HIV-1 strain with RT mutations K101E K103N; experiment: Susceptibility of site-directed mutant strain; details: SDM strain K101E K103N
Excerpt: as §1

[11] = test system: HIV-1 strain with RT mutations K103N Y181C; experiment: Susceptibility of site-directed mutant strain; details: SDM strain K103N Y181C
Excerpt: as §1

[12] = test system: HIV-1 strain with RT mutations L100I K103N E138G V179I Y181C; experiment: Susceptibility of site-directed mutant strain; details: SDM strain L100I K103N E138G V179I Y181C
Excerpt: as §1

[13] = test system: HIV-1 strain with RT mutations L100I K103N; experiment: Susceptibility of site-directed mutant strain; details: SDM strain L100I K103N
Excerpt: as §1

[14] = test system: HIV-1 strain with RT mutations M041L D067N K070R T215Y; experiment: Susceptibility of site-directed mutant strain; details: SDM strain M041L D067N K070R T215Y
Excerpt: as §1

[15] = test system: HIV-1 strain with RT mutations T069S ins069-070S-S L210W T215Y; experiment: Susceptibility of site-directed mutant strain; details: SDM strain T069S ins069-070S-S L210W T215Y
Excerpt: as §1

[16] = test system: HIV-1 strain with RT mutations Y115F M184V; experiment: Susceptibility of site-directed mutant strain; details: SDM strain Y115F M184V
Excerpt: as §1

HIV-2 (ROD) = experiment: Susceptibility of HIV-2 strain
HIV-1 IIIB = experiment: In vitro selection of viral strains resistant to RT inhibitors in MT4-LTR-EGFP cells; details: NcRTI-1: prolonged exposure (190 days)
Excerpt: To in vitro select viral strains resistant to RT inhibitors, MT4-LTR-EGFP cells were infected in the presence of the inhibitor (at 2 or 3 times EC50). Cultures were passaged every 3 to 4 days at the same concentration of inhibitor, until full virus breakthrough. At that time, virus was harvested and used for a new round of selection at a higher compound concentration. At each breakthrough, the harvested virus was genotyped to identify acquired mutations. For several RT inhibitors, alone or in combination, the mutations selected when replicating wild type HIV-1 (IIIB) in their presence, were determined (see Table 3).

[17] = over 6000 recent clinical HIV-1 isolates

Row | Structure (SMILES) | Fold change [1] | Fold change [2] | Fold change [3] | Fold change [4] | Fold change [5] | Fold change [6] | Fold change [7] | Fold change [8] | Fold change [9] | Fold change [10] | Fold change [11] | Fold change [12] | Fold change [13] | Fold change [14] | Fold change [15] | Fold change [16] | Fold change (HIV-2 (ROD)) | selection of the K65R mutation when combined with TDF (HIV-1 IIIB) | other results
1 | Cn1c2ccccc2c2c1cc(C#N)c(=O)n2-c1ccc([N+](=O)[O-])cc1 [NcRTI-1, 5-Methyl-1-(4-nitro-phenyl)-2-oxo-2,5-dihydro-1H-pyrido[3,2-b]indole-3-carbonitrile] | 0.46 and 0.5 | 1.9 | 5.0 | 7.9 | 2.3 | 1.7 | 1.0 | 2.0 | 0.89 and 0.9 | 2.1 | 2.1 | 2.5 | 2.6 | 3.8 | 0.9 | 75 | 14 | did not result in selection of the K65R mutation | effect of NNRTI resistance mutations and N(t)RTI multi-drug resistant patterns (TAMs, T69 insertion complex, Q151M complex) on activity (clinical HIV-1 isolates): not affected; cross-resistance with the NNRTIs EFV or NVP and the N(t)RTIs ZDV, TDF, ABC (clinical HIV-1 isolates; clinical HIV-1 isolates): No cross-resistance was observed; effect of the K65R mutation on susceptibility (clinical HIV-1 isolates; clinical isolates with K65R): hypersusceptibility; FC (fold change in EC50) (clinical HIV-1 isolates; clinical isolates with combination of mutations M184V+Y115F, random set of more than 1700 isolates): 75; profiled clinical isolates showing resistance (FC>10) (clinical HIV-1 isolates; [17]): 2.3%; profiled clinical isolates that remained susceptible (fold change in EC50 (FC)<4) (clinical HIV-1 isolates; [17]): 82%; profiled clinical isolates with reduced susceptibility (FC4-10) (clinical HIV-1 isolates; [17]): 15.7%
2 | Cc1cn([C@H]2C[C@H](N=[N+]=[N-])[C@@H](CO)O2)c(=O)[nH]c1=O [ZDV, zidovudine] |  |  |  |  |  |  |  |  |  |  |  |  |  |  |  |  | 0.1 |  | 
3 | CC(C)OC(=O)OCOP(=O)(CO[C@H](C)Cn1cnc2c(N)ncnc21)OCOC(=O)OC(C)C [TDF, tenofovir disoproxil fumarate] | 6.0 | 0.6 | 0.8 | 1.0 | 0.7 | 0.7 | 3.7 | 0.6 | 2.3 | 0.5 | 0.5 | 0.4 | 0.3 | 3.3 | 2.3 | 0.9 | 1.0 |  | 
4 | Nc1ccn([C@@H]2CS[C@H](CO)O2)c(=O)n1 [3TC, lamivudine] | >20 | 1.1 | >100 | 0.7 | 1.1 | 1.9 |  | 1.1 | >100 | 1.3 | 0.9 | 0.7 | 0.5 | 8.1 | 9.5 | >100 | 0.6 |  | 
5 | Cc1ccnc2c1NC(=O)c1cccnc1N2C1CC1 [NVP, nevirapine] | 3.4 | 50 | 2.3 | 2.9 | >100 | >100 |  | 31 | 1.2 | >100 | >100 | >100 | >100 | 2.8 | 1.1 | 2.3 | >100 |  | 
6 | Nc1nc(=O)n([C@@H]2CS[C@H](CO)O2)cc1F [FTC, emtricitabine] |  |  |  |  |  |  |  |  |  |  |  |  |  |  |  |  |  | the K65R mutation was selected | 
